Structures can show the parent of a compound that is named as a salt.
Legend:
cholesterol synthesis = assay: AICS screen: plasma [14C]cholesterol after oral dosing of cholestyramine-fed rats (inhibition of cholesterol synthesis); type: in vivo; conditions: male Sprague-Dawley rats fed 5% cholestyramine; for inhibition at 1 mg/kg: Rattus norvegicus
Experimental: The ability of compound s of the present invention to inhibit the biosynthesis of cholesterol was also measured by a method (designated AICS screen) which utilizes the procedure described by A. W. Alberts et al, Proc. Natl. Acad. Sci., (1980), 77, pp 3957-3961.
In this method male Sprague-Dawley rats (200 g body weight) previously fed 5% cholestyramine for three days were randomly divided into groups (N=5/group) and given a single dose of vehicle (controls) or compound by an oral gavage at the indicated doses. One hour after drug dosing, all rats were injected intraperitoneally with sodium[1-^14 C]-acetate (18.75 μCi/rat in 0.2 ml saline). After 50 minutes, blood samples were taken, plasma obtained by centrifugation, and plasma [^14 C] cholesterol measured after saponification and extraction.

[1] = molecular target: sterol synthesis by rat liver homogenate (HMG-CoA reductase); assay: CSX screen ("CSI" in Table 2): inhibition of sterol synthesis from 14C-acetate in rat liver homogenate; type: biochemical; conditions: 50% inhibition of sterol synthesis over a one-hour period
Experimental: The ability of compound s of the present invention to inhibit the biosynthesis of cholesterol was measured by a method (designated CSX screen) which utilizes the procedure described by R. E. Dugan, et al, Archiv. Biochem. Biophys., (1972), 152, 21-27. In this method, the level of HMG-CoA enzyme activity in standard laboratory rats is increased by feeding the rats a chow diet containing 5% cholestyramine for four days, after which the rats are sacrificed.
The rat livers are homogenized, and the incorporation of […] into nonsaponifiable lipid by the rat liver homogenate is measured. The micromolar concentration of compound required for 50% inhibition of sterol synthesis over a one-hour period is measured, and expressed as an IC50 value.

IC50 [1] | SMILES | inhibition at 1 mg/kg (cholesterol synthesis; Table 1, single oral gavage) | inhibition at 1 mg/kg (cholesterol synthesis; Table 2, single oral gavage) | AICS % Inhibition of Cholesterol Synthesis (cholesterol synthesis; Table 2, 1.0 mg/kg, single oral gavage)
– | CCc1nc(CC)c(/C=C/C2CC(O)CC(=O)O2)c(-c2ccc(F)cc2)c1/C=C/C1CC(O)CC(=O)O1 (stereo not drawn) [6,6'-[2,6-diethyl-4-(4-fluorophenyl)-3,5-pyridinediyl]di[2,1-ethenediyl]bis[4α,6β(E)][tetrahydro-4-hydroxy-2H -pyran-2-one]] | -3% | – | –
– | CC(C)c1nc(C(C)C)c(/C=C/C2CC(O)CC(=O)O2)c(-c2ccc(F)cc2)c1/C=C/C1CC(O)CC(=O)O1 (stereo not drawn) [6,6'-[[2,6-bis(1-methylethyl)-4-(4-fluorophenyl)-3,5-pyridinediyl]di-1,2-ethenediyl]bis [4α,6B(E)] tetrahydro-4-hydroxy-2H-pyran-2-one]] | -65% | – | –
0.032 µM | CCc1nc(CC)c(/C=C/C(O)CC(O)CC(=O)O)c(-c2ccc(F)cc2)c1/C=C/C(O)CC(O)CC(=O)O (stereo not drawn) [[R*,S*(E)]7,7'-[2,6-diethyl-4-(4-fluorophenyl)-3,5-pyridinediyl]bis[3,5-dihydroxy-6-heptenoic acid, disodium salt]] | – | -16% | –
0.0056 µM | CC(C)c1nc(C(C)C)c(C=CC(O)CC(O)CC(=O)[O-])c(-c2ccc(F)cc2)c1C=CC(O)CC(O)CC(=O)[O-].[Na+].[Na+] (stereo not drawn) [[R*,S*(E)]-7,7'-[2,6-bis(1-methylethyl)-2,4-(4-fluorophenyl)-3,5-pyridinediyl]bis [3,5-dihydroxy-6-heptenoio acid, disodium salt]] | – | – | -21%

Reference: patent US4950675A, “Pyridine di-mevalono-lactones as inhibitors of cholesterol biosynthesis” (Warner-Lambert Company, priority 1988, dated 1990)
